# Laboratory results published in patent publication US4868195A, “Novel enolamides, pharmaceutical compositions and methods of use thereof for activity as modulators of the arachidonic acid cascade” (Warner-Lambert Company, priority 1988, dated 1989).
# Values joined by “and” are separate entries in the source; they are usually repeats but may differ in a detail not shown here. Equal values may be shown once.
# Target: T1, leukotriene receptor (guinea pig lung membranes) (Cavia porcellus, UniProt Q2NNR5)
# T1 construct: 20 mg original tissue wet weight of guinea pig lung; tissue Kuiper Rabbit Farm, Gary, IN (animals); host or cells: guinea pig lung, crude membranes
# T1 sequence (Q2NNR5 1-340): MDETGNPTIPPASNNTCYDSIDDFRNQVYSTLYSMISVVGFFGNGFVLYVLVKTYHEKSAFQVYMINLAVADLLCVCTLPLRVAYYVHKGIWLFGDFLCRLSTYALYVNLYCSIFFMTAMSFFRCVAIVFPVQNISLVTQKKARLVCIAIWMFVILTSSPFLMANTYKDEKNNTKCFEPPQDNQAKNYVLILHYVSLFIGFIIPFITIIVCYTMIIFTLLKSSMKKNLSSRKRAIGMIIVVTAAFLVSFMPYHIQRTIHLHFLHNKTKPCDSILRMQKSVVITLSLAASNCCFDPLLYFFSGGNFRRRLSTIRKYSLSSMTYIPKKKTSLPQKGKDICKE
# Test: Binding of ^3 H-Leukotriene D4 to Guinea Pig Lung Membranes (RBL)
# Conditions: 0.2 nM ^3 H-LTD4, 60 min, 25° C.; read-out: Concentration (M) for 50.0 % Inhibition, IC (RBL)
# Method: Additionally, the activity, of the compounds having the Formula I of the present invention is determined by the well known leukotriene receptor binding assay that is described by R. F. Bruns, W. J. Thomsen and T. A. Pugsley in Life Sciences, 33, 645 (1983) or the Herxheimer in vivo antiallergy test described in H. Herxheimer, J. Physiol. (London), Vol. 177, p. 251 (1952).
# Binding of ^3 H-Leukotriene D4 to Guinea Pig Lung Membranes (RBL)
# [14,15-^3 H]leukotriene D4 (^3 H-LTD4) (25 Ci/mmol and 40 Ci/mmol) is purchased from New England Nuclear. Unlabeled LTC4 is a gift of Ono Pharmaceuticals (Japan). LTC4, LTD4, and LTE4 are purchased as methyl esters from Paesel GmbH (Frankfurt, W. Germany). Concentrations of the Paesel leukotrienes are calculated from their absorbance at 280 nm. Leukotriene esters are saponified overnight under N2 in 3.3% potassium carbonate at room temperature. Tritiated leukotrienes are stored as received from New England Nuclear at -20° C. Ono LTC4 (5 μg/ml) is stored at -60° C. in phosphate buffer pH 6.8. Saponified Paesel leukotrienes are stored at -60° C. in 3.3% potassium carbonate (pH 9.0-9.5). Aliquots of leukotrienes are taken from stock solutions immediately after thawing, after which the stock solutions are immediately refrozen. 2-Amino-2-(hydroxymethyl)-1,3-propanediol (Tris) is Sigma pH 7.7 pre-set crystals, and dimethylsulfoxide is Aldrich Gold Label.
# Preparation of crude lung membranes
# Two pairs of lungs (1.3 g) from freshly sacrificed 300 g male guinea pigs (older animals gave substantially lower binding) from Kuiper Rabbit Farm, Gary, IN are disrupted with a Polytron PT 10 (setting 4) for 30 seconds in 20 ml ice-cold 50 mM Tris adjusted with HCl to pH 7.7 at 25° C. (Tris buffer), filtered through a single layer of gauze to remove connective tissue, and centrifuged at 50,000 xg for ten min. The pellet is resuspended by homogenization with a Polytron in 20 ml Tris buffer, centrifuged at 50,000 xg for ten min., resuspended, incubated at 37° C. for 30 minutes, and centrifuged again. The final pellet is resuspended in Tris buffer and either used fresh or stored at -70° C.
# All incubations are in triplicate for 60 minutes at 25° C. in 12×75 mm polystyrene tubes containing 1 ml Tris buffer with 20 mg original tissue wet weight of guinea pig lung nmembranes, 0.2 nM ^3 H-LTD4 (6,000-11,000 cpm), 10 mM MgCl2, and 1% dimethylsulfoxide Leukotrienes are diluted in Tris buffer. All other test compounds dissolved at 10 mM in dimethylsulfoxide on the same day as the experiment, and diluted in dimethylsulfoxide to 100× the final incubation concentration. Control incubations receive an equal volume (10 μl) of dimethylsulfoxide; the resulting concentration of dimethylsulfoxide had no effect on binding. ^3 H-LTD4 is diluted to 2 nM in Tris buffer. The membrane suspension (20 mg/0.89 ml) contains sufficient MgCl2 to give 10 mM final concentration in the incubation. […] All additions are performed at 0° C. Immediately after the last addition, the incubation is initiated by agitating the rack of tubes on a vortex mixer and warming to 25° C. in a water bath. Tubes are vortexed at least once more during the incubation to ensure that the membranes remained suspended. Incubations are terminated after 60 minutes by filtering under reduced pressure through 25 mm Whatman GF/B filters followed by rapid washing three times with 4 ml of ice-cold Tris buffer. Filters are added to scintillation vials with 8 ml Formula 947 (New England Nuclear), left overnight, shaken, and the radioactivity counted in a scintillation counter (efficiency 40%). Nonspecific binding, defined as binding of ^3 H-LTD4 in the presence of 100 nM LTC4, is 300-500 cpm for all lots of ^3 H-LTD4. Binding to the filters in the absence of tissue is about 100 cpm, and is not affected by unlabeled LTC4. Specific binding, defined as total binding minus nonspecific binding, varied considerably from lot to lot of ^3 H-LTD4. […]
row,IC50,SMILES
1,6.56e-06 M and 1.04e-05 M,"O=C(Nc1ccc(C=Cc2ccc([N+](=O)[O-])cc2)cc1)C1CS(=O)(=O)c2ccccc2C1=O (centres unmarked) [Example 67, 2H-1-Benzothiopyran-3-carboxamide, 3,4-dihydro-N-[4-[2-(4-nitrophenyl)ethenyl]phenyl]-4-oxo-, 1,1-dixide]"
2,7.19e-05 M,"COc1ccc(CCc2ccc(NC(=O)C3=C(O)c4ccccc4S(=O)(=O)C3)cc2)cc1OC [Example 18, N-[4-[2-(3,4-Dimethoxyphenyl)ethyl]phenyl]-4-hydroxy-2H-1-benzothiopyran-3-carboxamide, 1,1-dioxide]"
3,3e-06 M,"O=C(Nc1cccc(CCc2ccc(Cl)c(Cl)c2)c1)C1=C(O)c2ccccc2S(=O)(=O)C1 [Example 76, 2H-1-Benzothiopyran-3-carboxamide, N-[3-[2-(3,4-dichlorophenyl)ethyl]phenyl]-4-hydroxy-, 1,1-dioxide]"
4,3.84e-06 M,"O=C(Nc1ccc(CCc2cccc3ccccc23)cc1)C1=C(O)c2ccccc2S(=O)(=O)C1 [Example 73, 2H-1-Benzothiopyran-3-carboxamide, 4-hydroxy-N-[4-[2-(1-naphthalenyl)ethyl]phenyl], 1,1-dioxide]"
5,1.26e-05 M,COc1ccc(CCc2ccc(NC(=O)C3CS(=O)(=O)c4ccccc4C3=O)cc2)cc1 (centres unmarked) [Example 41]
6,1.01e-05 M,"O=C(Nc1ccccc1Cc1ccc(Cl)c(Cl)c1)C1=C(O)c2ccccc2S(=O)(=O)C1 [Example 81, 2H-1-Benzothiopyran-3-carboxamide, N-[2-[(3,4-dichlorophenyl)methyl]phenyl]-4-hydroxy, 1,1-dioxide]"
7,6.11e-06 M and 9.49e-06 M and 2.82e-06 M,"O=C(Nc1ccc(CCc2c(F)c(F)c(F)c(F)c2F)cc1)C1=C(O)c2ccccc2S(=O)(=O)C1 [Example 64, N-[4-[2-(2,3,4,5,6-Pentafluorophenyl)ethyl]phenyl]-4-hydroxy-2H-1-benzothiopyran-3-carboxamide, 1,1-dioxide]"
8,6.1e-05 M,"COc1cc(CCc2ccc(NC(=O)C(=O)c3sc4ccccc4c3O)cc2)ccc1O [Example 142, Benzo[b]thiophene-2-acetamide, 3-hydroxy-N-[4-[2-(4-hydroxy-3-methoxyphenyl)ethyl]phenyl]-α-oxo-]"
9,2.15e-05 M and 1.87e-05 M,"O=C(Nc1ccc(CCc2ccc(-c3ccccc3)cc2)cc1)C1CS(=O)(=O)c2ccccc2C1=O (centres unmarked) [Example 46, N-[4-[2-([1,1'-biphenyl]-4-yl)ethyl]phenyl]-3,4-dihydro-4-oxo-2H-1-benzothiopyran-3-carboxamide, 1,1-dioxide]"
10,1.21e-05 M,"CCCCCCCCCCc1ccc(NC(=O)C2CS(=O)(=O)c3ccccc3C2=O)cc1 (centres unmarked) [Example 60, N-(4-Decylphenyl)-3,4-dihydro-4-oxo-2H-1-benzoothiopyran-3-carboxamide, 1,1-dioxide]"

# More lines, now with the values behind:
row,SMILES,IC50
1,"COc1ccc(CCc2ccc(NC(=O)c3sc4ccccc4c3O)cc2)cc1OC [Example 143, Benzo[b]thiophene-2-carboxamide, N-[4-[2-(3,4-dimethoxphenyl)ethyl]phenyl]-3-hydroxy]",1.21e-05 M
2,"O=C(Nc1ccc(CCc2ccc3ccccc3c2)cc1)C1=C(O)c2ccccc2S(=O)(=O)C1 [Example 51, 4-Hydroxy-N-[4-[2-(2-naphthalenyl)ethyl]phenyl]-2H-1-benzothiopyran-3-carboxamide, 1,1-dioxide]",3.84e-06 M
3,"O=C(Nc1ccc(CCc2ccc(Cl)cc2)cc1)C1CS(=O)(=O)c2ccccc2C1=O (centres unmarked) [Example 54, N-[4-[2-(4-Chlorophenyl)ethyl]phenyl]-3,4-dihydro-4-oxo-2H-1-benzothiopyran-3-carboxamide, 1,1-dioxide]",1.09e-05 M
4,"O=C(Nc1ccccc1CCCc1ccc(Cl)c(Cl)c1)C1=C(O)c2ccccc2S(=O)(=O)C1 [Example 80, 2H-1-Benzothiopyran-3-carboxamide, N-[2-[3-(3,4-dichlorophenyl)propyl]phenyl]-4-hydroxy-, 1,1-dioxide]",1.27e-05 M
5,"O=C(Nc1cccc(CCc2ccc(Cl)c(Cl)c2)c1)c1sc2ccccc2c1O [Example 146, Benzo[b]thiophene-2-carboxamide, N-[3-[2-(3,4-dichlorophenyl)ethyl]phenyl]-3-hydroxy]",1.02e-06 M
6,"O=C(Nc1ccc(Cc2ccc(Cl)c(Cl)c2)cc1)C1=C(O)c2ccccc2S(=O)(=O)C1 [Example 78, 2H-1-Benzothiopyran-3-carboxamide, N-[4-[(3,4-dichlorophenyl)methyl]phenyl]-4-hydroxy-, 1,1-dioxide]",4.82e-06 M
7,"O=C(Nc1ccc(C=Cc2ccc(Cl)c(Cl)c2)cc1)C1=C(O)c2ccccc2S(=O)(=O)C1 [Example 74, 2H-1-Benzothiopyran-3-carboxamide, N-[4-[2-(3,4-dichlorophenyl)ethenyl]phenyl]-4-hydroxy-, 1,1-dioxide]",5.27e-06 M
8,"O=C(Nc1ccc(CCCc2ccc(Cl)c(Cl)c2)cc1)C1=C(O)c2ccccc2S(=O)(=O)C1 [Example 79, 2H-1-Benzothiopyran-3-carboxamide, N-[4-[3-(3,4-dichlorphenyl)propyl]phenyl]-4-hydroxy-, 1,1-dioxide]",4.13e-07 M and 5.3e-07 M
9,"COc1ccc(CCc2ccc(NC(=O)C3CS(=O)(=O)c4ccccc4C3=O)cc2)cc1O (centres unmarked) [Example 27, 3,4-Dihydro-N-[4-[2-(3-hydroxy-4-methoxyphenyl)ethyl]phenyl]-4-oxo-2H-1-benzothiopyran-3-carboxamide, 1,1-dioxide]",0.000106 M and 0.00012 M
10,CCCCOc1ccc(CCc2ccc(NC(=O)C3CS(=O)(=O)c4ccccc4C3=O)cc2)cc1 (centres unmarked) [Example 48],6.48e-06 M and 1.19e-05 M and 2e-05 M and 1.29e-05 M
11,"O=C(Nc1ccccc1CCc1ccc(Cl)c(Cl)c1)C1=C(O)c2ccccc2S(=O)(=O)C1 [Example 8, N-[2-[2-(3,4-Dichlorophenyl)ethyl]phenyl]-4-hydroxy-2H-1-benzothiopyran-3-carboxamide, 1,1-dioxide]",4.21e-06 M
12,"Cc1ccc(CCc2ccc(NC(=O)C3CS(=O)(=O)c4ccccc4C3=O)cc2)cc1C (centres unmarked) [Example 53, N-[4-[2-(3,4-Dimethylphenyl)ethyl]phenyl]-3,4-dihydro-4-oxo-2H-1-benzothiopyran-3-carboxamide, 1,1-dioxide]",3.54e-06 M
13,"O=C(Nc1ccc(CCc2ccccc2)cc1)C1CS(=O)(=O)c2ccccc2C1=O (centres unmarked) [Example 16, 3,4-Dihydro-4-oxo-N-[(4-(2-phenyl)ethyl]-phenyl]-2H-1-benzothiopyran-3-carboxamide, 1,1-dioxide]",1.28e-05 M
